Measurements as given in patent publication US8329703B2, “Pyrazole compounds” (XTL Biopharmaceuticals Ltd., priority 2005, dated 2012).
Where two headings read alike, the source gives them in different places.

What was measured:
[1] = system: HCV Replicon (HCV IRES driven luciferase reporter) in Huh-Luc-Neo cells; test: HCV Replicon Luciferase Assay; assay type: cell-based; settings: Hepatitis C virus, 48 h
Description: (§1) The identification of inhibitors of HCV replication and/or proliferation has been facilitated by the development of a cell based system to study HCV replication and assay for HCV inhibitors. Inhibition of HCV replication may be performed using the HCV Replicon Assay developed in the laboratories of Bartenschlager (Lohman et al, Science 285, 110-113, 1999) and Rice (Blight et al, Science 290, 1972-1974, 2000). The assay is performed using the Huh-Luc-Neo cell line (Lohman et al, Science 285, 110-113, 1999). Huh-Luc-Neo cells are a human hepatoma cell line (Huh-7) stably expressing a bi-cistronic subgenomic replicon containing the HCV IRES in which the […] of HCV had been deleted and replaced by a construct containing sequences coding for the firefly luciferase reporter gene, the neomycin selectable marker and the EMCV IRES to direct expression of a truncated HCV genome expressing the […] NS3, NS4A, NS4B, NS5A, and NS5B. HCV targets through which inhibitors could act to inhibit replication include the NS3 protease, the helicase/ATPase, NS5A, the NS5B-RNA dependent RNA polymerase, and the HCV IRES.
(§2) Expression of HCV IRES driven luciferase reporter activity and HCV RNA is measured to obtain indirect and direct measures of replication of HCV RNA respectively. Inhibitors of HCV replication and/or proliferation are determined by initially identifying molecules that inhibit expression of the HCV IRES driven luciferase reporter in this HCV Replicon Luciferase Assay. Cell viability assays and control cell based luciferase assays are then run on hits identified in the HCV Replicon Luciferase Assay to eliminate cytoxic compounds and non-specific compounds which act by inhibiting the luciferase enzyme.
(§3) Day 0, Cell Seeding and Compound Treatment: Huh-Luc-Neo Cells are seeded at 25,000/well in an opaque-walled 96 plate with Growth Medium (DMEM phenol red free+PS+2 mM glutamine; 100 μl/well). The compounds to be tested are added to the experimental wells (10 μl/well at 10× assay concentration) and the cells are then incubated (5% CO2, 37° C.) for 48 h.
(§4) Day 2, Reagent Preparation and Luciferase Assay: The Bright-Glo Luciferase Assay Buffer (Promega) is thawed and equilibrated to room temperature prior to use. The lyophilized Bright-Glo Luciferase Assay Substrate is equilibrated to room temperature prior to use. 10 ml of Bright-Glo Luciferase Assay Buffer is transferred to 1 vial of Bright-Glo Luciferase Assay Substrate bottle and mixed by gently with a Vortex. 100 ul of Bright-Glo Luciferase Assay reagent (Bright-Glo Luciferase Assay Buffer+Bright-Glo Luciferase Assay Substrate Mixture) is added to each well. The well contents are mixed for 5 min. on an orbital shaker at room temperature to induce cell lysis and the luminescence is then measured using a luminometer. The data is analyzed and IC50s are determined using GraphPad Prism 4 software. Hits validated in the Replicon Luciferase assay have IC50s<8.0 μM and show <30% inhibition of Cell Viability at a compound concentration of 100 μM (Cell Titer Glow Assay, cell viability assay conditions identical to HCV Replicon Luciferase Assay conditions).

[2] = system: HCV RNA (HCV Replicon) in Huh-Luc-Neo cells; test: HCV Replicon RNA Assay (Taqman quantitative PCR); assay type: cell-based; settings: Hepatitis C virus, 48 h, 2 compound treatments over 48 h, no unit printed in table (b307 gives IC50s in μM)
Description: as §1, §2
as §3, with “C.).” for “C.) for 48 h.”
Day 1, Media Change and Compound Treatment: 24 hours after the initial compound treatment the cell culture media is aspirated from the wells and fresh Growth Medium is added (DMEM phenol red free+PS+2 mM glutamine; 100 μl/well). The compounds to be tested are then added to the appropriate experimental wells (10 μl/well at 10× assay concentration) and the cells are then incubated (5% CO2, 37° C.) for an additional 24 hrs.
Day 2, RNA Isolation and cDNA Synthesis: The cells are washed with 1× Phosphate Buffered Saline (PBS) once.
(§5) Day 3, Quantitative PCR Based Measurement of HCV RNA (Taqman Assay): Quantitative PCR analysis to measure HCV RNA expression from cDNA synthesized on Day 2 is performed using the ABI 9700 HT Sequence Detection System (Applied Biosystems) as previously described (Lohman et al, Science 285, 110-113, 1999). The data is analyzed and IC50s are determined using GraphPad Prism 4 software. Hits validated in the Replicon RNA Assay have IC50s<8.0 μM and show <30% inhibition of Cell Viability at a compound concentration of 50 μM (Cell Titer Glow Assay, cell viability assay conditions identical to HCV Replicon RNA Assay conditions).

Huh-Luc-Neo cells = test: Cell Titer-Glo Cell Viability Assay; assay type: cell-based, human; settings: for Toxicity % Inhibition at 50 μM (2 doses): inhibition of cell viability at 50 μM, conditions identical to HCV Replicon RNA Assay; for Toxicity % Inhibition at 100 μM (1 dose): inhibition of cell viability at 100 μM, conditions identical to HCV Replicon Luciferase Assay (48 h)
Description: as §4, §5
Day 0, Cell Seeding and Compound Treatment: Huh-Luc-Neo Cells are seeded at 25,000/well in an opaque-walled 96 plate with Growth Medium (DMEM phenol red free+PS+2 mM glutamine; 100 ul/well).
Day 2, Reagent Preparation and Assay: The CellTiter-Glo Buffer is thawed and equilibrated to room temperature prior to use. The lyophilized CellTiter-Glo Substrate is equilibrated to room temperature prior to use. 10 ml of CellTiter-Glo Buffer is transferred to 1 vial of CellTiter-Glo Substrate and mixed by gently with a Vortex. 100 μl of CellTiter-Glo Assay reagent (CellTiter-Glo Buffer+CellTiter-Glo Substrate Mixture) is added to each well. The well contents are mixed for 5 min. on an orbital shaker at room temperature to induce cell lysis and the luminescence is then measured using a luminometer.

[3] = Huh-Luc-Neo cells, no unit printed in table (b301 gives IC50s in μM), read-out: Luciferase IC50
[4] = read-out: Luciferase IC50, Huh-Luc-Neo cells, 48 h, no unit printed in table (b301 gives IC50s in μM)

## Cn1cc(CCC(C)(C)C)c(-c2cc(NC(=O)c3cccc(Cl)c3F)ccc2O)n1 [VQ_34072]
[1]; [3]
  IC50: 2.87 µM
[2]
  IC50: 1.09 µM
Huh-Luc-Neo cells
  Toxicity % Inhibition at 50 μM (2 doses): 6.2%
  Toxicity % Inhibition at 100 μM (1 dose): 4.2%

## Cn1cc(C#CC(C)(C)C)c(-c2cc([N+](=O)[O-])ccc2OCc2c(F)cccc2F)n1 [VQ_33518]
[1]; [3]
  IC50: 1.85 µM
[2]
  IC50: 0.42 µM
Huh-Luc-Neo cells
  Toxicity % Inhibition at 50 μM (2 doses): 22.8%
  Toxicity % Inhibition at 100 μM (1 dose): 40.4%

## COc1ccc(C#Cc2cn(C)nc2-c2cc(Cl)ccc2O)cc1 [VQ_23317]
[1]; [3]
  IC50: 4.37 µM
[2]
  IC50: 2.7 µM
Huh-Luc-Neo cells
  Toxicity % Inhibition at 50 μM (2 doses): 2.1%
  Toxicity % Inhibition at 100 μM (1 dose): 10.7%

## Cn1cc(C#CCC2CCCCC2)c(-c2ccccc2O)n1 [VQ_23705]
[1]; [3]
  IC50: 6.47 µM
[2]
  IC50: 1.1 µM
Huh-Luc-Neo cells
  Toxicity % Inhibition at 50 μM (2 doses): 14.7%
  Toxicity % Inhibition at 100 μM (1 dose): 26.4%

## Cn1cc(C#CC(C)(C)C)c(-c2cc(-c3cccc(Cl)c3)ccc2O)n1 [VQ_35543]
[1]; [3]
  IC50: 10.1 µM
[2]
  IC50: 2.16 µM
Huh-Luc-Neo cells
  Toxicity % Inhibition at 50 μM (2 doses): 8.2%
  Toxicity % Inhibition at 100 μM (1 dose): 25.3%

## CC(Nc1ccc([N+](=O)[O-])cc1-c1nn(C)cc1C#CC(C)(C)C)c1ccccc1 (centres unmarked) [VQ_36666]
[1]; [3]
  IC50: 0.35 µM
[2]
  IC50: 0.38 µM
Huh-Luc-Neo cells
  Toxicity % Inhibition at 50 μM (2 doses): 19.0%
  Toxicity % Inhibition at 100 μM (1 dose): 12.9%

## Cn1cc(C#CC(C)(C)C)c(-c2cc([N+](=O)[O-])ccc2NCc2cc(F)cc(F)c2)n1 [VQ_36659]
[1]; read-out: Luciferase IC50
  IC50: 0.04 µM
[2]
  IC50: 0.3 µM
Huh-Luc-Neo cells
  Toxicity % Inhibition at 50 μM (2 doses): 21.9%
  Toxicity % Inhibition at 100 μM (1 dose): 13.0%

## Cn1cc(C#CC(C)(C)C)c(-c2cc([N+](=O)[O-])ccc2NCCCNc2ccc([N+](=O)[O-])cc2-c2nn(C)cc2C#CC(C)(C)C)n1 [VQ_36673]
[1]; [4]
  IC50: 2.09 µM
[2]
  IC50: 0.42 µM
Huh-Luc-Neo cells
  Toxicity % Inhibition at 50 μM (2 doses): 19.7%
  Toxicity % Inhibition at 100 μM (1 dose): 15.9%

## Cn1cc(C#CC(C)(C)C)c(-c2cc([N+](=O)[O-])ccc2NCC(C)(C)CNc2ccc([N+](=O)[O-])cc2-c2nn(C)cc2C#CC(C)(C)C)n1 [VQ_36660]
[1]; [4]
  IC50: 10.4 µM
[2]
  IC50: 0.59 µM
Huh-Luc-Neo cells
  Toxicity % Inhibition at 50 μM (2 doses): 15.8%
  Toxicity % Inhibition at 100 μM (1 dose): 15.3%

## Cc1cc(O)c(-c2nn(C)cc2C#CCCCC#N)cc1Cl [VQ_24691]
[1]; [3]
  IC50: 5.13 µM
[2]
  IC50: 0.09 µM
Huh-Luc-Neo cells
  Toxicity % Inhibition at 50 μM (2 doses): 28.3%
  Toxicity % Inhibition at 100 μM (1 dose): 21.1%

## Cn1nc(-c2cc(Br)ccc2O)c(C#CC(C)(C)C)c1C#CCCCC#N [VQ_34298]
[1]; [3]
  IC50: 5.5 µM
[2]
  IC50: 3.86 µM
Huh-Luc-Neo cells
  Toxicity % Inhibition at 50 μM (2 doses): 23.9%
  Toxicity % Inhibition at 100 μM (1 dose): 18.3%

## COc1ccc(O)c(-c2nn(C)cc2C#CC(C)(C)C)c1 [VQ_34145]
[1]; [3]
  IC50: 1.87 µM
[2]
  IC50: 0.82 µM
Huh-Luc-Neo cells
  Toxicity % Inhibition at 50 μM (2 doses): 13.1%
  Toxicity % Inhibition at 100 μM (1 dose): 19.8%

## Cn1cc(C#Cc2ccc(N)cc2)c(-c2ccccc2O)n1 [VQ_23708]
[1]; [3]
  IC50: 0.55 µM
[2]
  IC50: 0.7 µM
Huh-Luc-Neo cells
  Toxicity % Inhibition at 50 μM (2 doses): 21.8%
  Toxicity % Inhibition at 100 μM (1 dose): 63.8%

## Cc1ccc(O)c(-c2nn(C)cc2C#Cc2ccc(N)cc2)c1 [VQ_23714]
[1]; [3]
  IC50: 1.16 µM
[2]
  IC50: 0.1 µM
Huh-Luc-Neo cells
  Toxicity % Inhibition at 50 μM (2 doses): 33.4%
  Toxicity % Inhibition at 100 μM (1 dose): 31.5%

## Cn1cc(C#CC(C)(C)C)c(-c2cc([N+](=O)[O-])ccc2NC2CCCCC2)n1 [VQ_36661]
[1]; [3]
  IC50: 0.63 µM
[2]
  IC50: 0.55 µM
Huh-Luc-Neo cells
  Toxicity % Inhibition at 50 μM (2 doses): 14.4%
  Toxicity % Inhibition at 100 μM (1 dose): 9.5%

## Cn1cc(-c2ccc(O)c(-c3nn(C)cc3C#CC(C)(C)C)c2)cn1 [VQ_95538]
[1]; [3]
  IC50: 9.8 µM
[2]
  IC50: 1.35 µM
Huh-Luc-Neo cells
  Toxicity % Inhibition at 50 μM (2 doses): 6.1%
  Toxicity % Inhibition at 100 μM (1 dose): 24.3%

## Cn1cc(C#CC(C)(C)C)c(-c2cc(NC(=O)c3ccc(Cl)c(Cl)c3)ccc2O)n1 [VQ_35556]
[1]; [3]
  IC50: 9.3 µM
[2]
  IC50: 0.99 µM
Huh-Luc-Neo cells
  Toxicity % Inhibition at 50 μM (2 doses): 13.7%
  Toxicity % Inhibition at 100 μM (1 dose): 28.8%
